These results are taken from PubChem BioAssay (NCI).

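Results reflect a 48-hour exposure of cells in 96-well plates to compound at five concentrations. GI50 marks 50% less growth. At the TGI there is no net growth.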

Test systems include M14 melanoma; COLO 205 colon; A549 NSCLC; CAKI-1 renal; PC-3 prostate; RPMI-8226 leukemia; RXF 393 renal; SK-OV-3 ovarian; SK-MEL-2 melanoma; SNB-19 CNS.
What all share (assay): growth of human tumour cells (NCI), 48 h

Regarding `OC(c1cc2c(Cl)cc(Cl)cc2c2cc(C(F)(F)F)ccc12)C1CCCCN1` (centres undefined), the GI50 is 2.04 µM in the assay on M14 melanoma; 1.88 µM with COLO 205 colon; 1.85 µM in the assay with A549 NSCLC; 1.68 µM in the assay on CAKI-1 renal; 1.71 µM in the assay with PC-3 prostate; 2.3 µM in the assay with RPMI-8226 leukemia. Also, the values for the GI50 in the assay on RXF 393 renal, in the assay on SK-OV-3 ovarian and with SK-MEL-2 melanoma were 1.61 µM, 1.67 µM and 2.27 µM, respectively. The TGI in the assay with M14 melanoma worked out at 4.12 µM; in the assay with COLO 205 colon, 3.55 µM; in the assay with A549 NSCLC, 3.68 µM; with CAKI-1 renal, 3.46 µM; in the assay with PC-3 prostate, 3.26 µM; in the assay on RPMI-8226 leukemia, 4.95 µM. Further, the TGI stood at 3.12 µM in the assay with RXF 393 renal, 3.26 µM with SK-OV-3 ovarian and 4.12 µM in the assay with SK-MEL-2 melanoma.

On to `COc1cccc(-c2nn(C)c3sc(C(=O)NCCN4CCN(c5ccccc5F)CC4)cc23)c1`, for which the GI50 in the assay on SNB-19 CNS was 21 µM; in the assay on COLO 205 colon, 20.6 µM; in the assay on A549 NSCLC it was 15.3 µM; with CAKI-1 renal it was 9.02 µM; in the assay with PC-3 prostate, 11.5 µM; with RPMI-8226 leukemia it was 6.51 µM. The GI50 in the assay on RXF 393 renal is 3.17 µM; in the assay with SK-OV-3 ovarian it was over 100 µM; with SK-MEL-2 melanoma, 33.9 µM. For the same molecule, the TGI in the assay on SNB-19 CNS was over 100 µM; in the assay with COLO 205 colon it was over 100 µM; in the assay on A549 NSCLC, over 100 µM; in the assay on CAKI-1 renal, 91.5 µM; in the assay with PC-3 prostate, over 100 µM; in the assay on RPMI-8226 leukemia, over 100 µM. In addition, the TGI with RXF 393 renal, in the assay on SK-OV-3 ovarian and in the assay with SK-MEL-2 melanoma was over 100 µM in each case.

With `C/C(=N\O)c1ccc(Nc2cc(-c3ccccc3)nc3c(O)cccc23)cc1`, the GI50 is 16.2 µM in the assay with M14 melanoma; 20.7 µM in the assay on COLO 205 colon; 10.2 µM in the assay on A549 NSCLC; 10.2 µM with CAKI-1 renal; 17.1 µM in the assay with PC-3 prostate; 4.5 µM in the assay with RPMI-8226 leukemia. Moreover, the GI50 is 7.47 µM with RXF 393 renal, 27.4 µM in the assay with SK-OV-3 ovarian and 17.3 µM in the assay with SK-MEL-2 melanoma. In addition, the TGI came out at 31.3 µM in the assay with M14 melanoma; 42.6 µM with COLO 205 colon; 31 µM in the assay on A549 NSCLC; 35 µM in the assay with CAKI-1 renal; 41.9 µM with PC-3 prostate; 30.8 µM in the assay on RPMI-8226 leukemia. The TGI with RXF 393 renal came out at 24.7 µM; in the assay on SK-OV-3 ovarian, 56.1 µM; in the assay on SK-MEL-2 melanoma, 36.8 µM.

Consider `Nc1c(S(=O)(=O)O)cc2c(c1Cl)C(=O)c1ccccc1C2=O`, for which the GI50 with SNB-19 CNS, in the assay on M14 melanoma, in the assay on COLO 205 colon, with A549 NSCLC, in the assay on CAKI-1 renal and in the assay with PC-3 prostate was over 100 µM throughout. For the same molecule, the GI50 with RPMI-8226 leukemia, in the assay on RXF 393 renal and in the assay on SK-OV-3 ovarian was over 100 µM each time. For the same molecule, the TGI with SNB-19 CNS, in the assay with M14 melanoma, in the assay on COLO 205 colon, in the assay on A549 NSCLC, with CAKI-1 renal and in the assay on PC-3 prostate was over 100 µM throughout. Besides, the TGI in the assay on RPMI-8226 leukemia, in the assay with RXF 393 renal and in the assay on SK-OV-3 ovarian was over 100 µM in each case.

Regarding `COc1cc(-c2cc(C(=O)N3CCN(C(=O)c4ccccc4NCc4cccs4)CC3)nc3cc(-c4ccccc4)nn23)cc(OC)c1OC`, the GI50 is 8.99 µM in the assay on SNB-19 CNS; 5.91 µM in the assay on M14 melanoma; 4.04 µM with COLO 205 colon; 5.68 µM in the assay on A549 NSCLC; 2.78 µM with CAKI-1 renal; 4.18 µM in the assay with PC-3 prostate. Further, the GI50 is 2.45 µM with RXF 393 renal, 5.5 µM with SK-OV-3 ovarian and 3.73 µM in the assay with SK-MEL-2 melanoma. Besides, the TGI was over 100 µM in the assay on SNB-19 CNS; over 100 µM in the assay with M14 melanoma; 26.5 µM with COLO 205 colon; over 100 µM in the assay on A549 NSCLC; 8.33 µM with CAKI-1 renal; over 100 µM in the assay on PC-3 prostate. For the same molecule, the TGI is 8.01 µM in the assay on RXF 393 renal, over 100 µM with SK-OV-3 ovarian and 15.6 µM in the assay with SK-MEL-2 melanoma.

On to `COc1ccc(S(=O)(=O)Nc2c(/C=C\c3cc(OC)c(OC)c(OC)c3)ccc(OC)c2O)cc1OC`, for which the GI50 is 0.506 µM with SNB-19 CNS; 0.205 µM in the assay on M14 melanoma; 0.472 µM in the assay on COLO 205 colon; 0.403 µM in the assay on A549 NSCLC; 1.01 µM with CAKI-1 renal; 0.244 µM in the assay on PC-3 prostate. Besides, the GI50 in the assay with RPMI-8226 leukemia was 0.413 µM; in the assay with SK-OV-3 ovarian it was 1.29 µM; in the assay with SK-MEL-2 melanoma it was 2.05 µM. Moreover, the TGI in the assay on SNB-19 CNS was over 100 µM; with M14 melanoma, over 100 µM; in the assay on COLO 205 colon it was 2.99 µM; in the assay on A549 NSCLC, over 100 µM; in the assay with CAKI-1 renal, over 100 µM; in the assay with PC-3 prostate it was over 100 µM. The TGI is over 61 µM with RPMI-8226 leukemia, over 100 µM in the assay on SK-OV-3 ovarian and over 100 µM with SK-MEL-2 melanoma.

As to `COc1ccc(/C=N/C2=C(C#N)C(c3ccccc3)c3ccc4ccccc4c3O2)cc1` (centres undefined), the GI50 was 0.54 µM in the assay with SNB-19 CNS; 0.336 µM with M14 melanoma; 0.719 µM in the assay with COLO 205 colon; 0.641 µM with A549 NSCLC; 0.224 µM in the assay with CAKI-1 renal; 0.393 µM with PC-3 prostate. Besides, the GI50 with RPMI-8226 leukemia is 0.383 µM; in the assay with SK-OV-3 ovarian, 0.539 µM; in the assay on SK-MEL-2 melanoma, 0.545 µM. The TGI with SNB-19 CNS is over 100 µM; in the assay with M14 melanoma, over 100 µM; in the assay with COLO 205 colon it was 8.49 µM; in the assay on A549 NSCLC, over 100 µM; with CAKI-1 renal it was over 61.8 µM; in the assay with PC-3 prostate, over 100 µM. In addition, the figures for the TGI in the assay with RPMI-8226 leukemia, with SK-OV-3 ovarian and with SK-MEL-2 melanoma were over 38 µM, over 100 µM and over 100 µM, respectively.

In the case of `O=c1c(-c2nc3ccccc3[nH]2)cc2ccccc2n1Cc1cn(Cc2ccc(F)cc2)nn1`, the GI50 was 0.305 µM in the assay with SNB-19 CNS; 0.0568 µM with M14 melanoma; 0.116 µM in the assay on A549 NSCLC; 0.246 µM in the assay on CAKI-1 renal; 0.153 µM in the assay on PC-3 prostate; 0.0427 µM in the assay on RPMI-8226 leukemia. Also, the GI50 is 0.125 µM with RXF 393 renal, 0.328 µM with SK-OV-3 ovarian and 0.348 µM in the assay on SK-MEL-2 melanoma. For the same molecule, the TGI is 25.2 µM in the assay on SNB-19 CNS; 0.39 µM in the assay with M14 melanoma; over 100 µM with A549 NSCLC; over 100 µM in the assay on CAKI-1 renal; over 100 µM in the assay on PC-3 prostate; over 100 µM in the assay with RPMI-8226 leukemia. In addition, the TGI in the assay with RXF 393 renal was found to be 0.484 µM; with SK-OV-3 ovarian it was 4.63 µM; in the assay on SK-MEL-2 melanoma, 10.2 µM.
